# According to US8575089B2, “Composition for preventing or treating inflammation” (University-Industry Cooperation Group of Kyung Hee, priority 2009, dated 2013):
# Where no end group is shown, it is not given here.
# Key:
# [1] = system: mononuclear cells isolated from peripheral blood; experiment: IL-6 and IL-10 expression (ELISA) in peripheral blood mononuclear cells treated with SP; type: cell-based, C57b1/6 mice; details: peripheral blood mononuclear cells in T-cell activation media (ConA); 10 nmole/kg SP; 4.5, 10, 24 hours; FIG. 1
# Method: Peripheral blood was collected from C57b1/6 mice (8 weeks, sex; male, n=5, Average Weight; 20 g), diluted doubly with PBS, carefully placed on Ficoll in a tube, and then centrifuged at 2200 rpm for 20 minutes. By centrifuging, from the bottom, an erythrocyte layer, a ficoll layer, a mononuclear cell layer, and a plasma layer were obtained in order. The mononuclear cell layer and plasma layer were isolated, excluding the erythrocyte layer and ficoll layer, and then washed one time with PBS. Then, the number of cells was counted; the cells with a concentration of 1×10^5/0.2 ml were seeded onto T-cell activation media (lymphocyte activation media; RPMI, 10% FBS, 100 μM 2-mercaptoetanol, 20 μg/ml ConA); then the cells were cultured at an incubator of 37° C.; and then culture supernatant was taken at 4.5 hours, 10 hours, and 24 hours. For SP-treated group, 10 nmole/kg of SP dissolved in a physiological saline was treated to T-cell activation media. […] After 30 minutes, 100 μl of stop codon was treated to stop the reaction; the optical density was measured at 450 nm; the amounts of cytokines were converted based on a protein conversion formula by a standard sample; and then the results were shown in FIG. 1.
# [2] = system: inflammatory cells in blood; experiment: Radiation-irradiating model: CBC of inflammatory cells in blood; type: in vivo, C57b1/6 mice; details: mice, 8 Gy, 5 nmole/kg SP i.v. one day before and immediately after irradiation, 4.5 hours after irradiation, vs group without SP
# Method: (§1) 5 nmole/kg of SP dissolved in a physiological saline was injected to a tail vein of C57b1/6 mice (8 weeks, sex; male, n=4, Average weight; 20 g) one day before irradiation and immediately after irradiation. The irradiation was performed at 8 Gy radiation in a Gamma lay radiation irradiator (^137Cs, Atomic Energy of Canada, Mississauga, Canada). The mice were sacrificed at 4.5 hours and one day after irradiation, and then the blood was collected. The part of the blood was used for analyzing CBC (Complete Blood Count) and the remaining blood was used to isolate serum and then analyze cytokines
# 200 μl of mouse's blood was taken at 4.5 hours and one day after 8 Gy radiation; it was added to a vial including a small amount of EDTA and then analyzed for CBC. […] It was confirmed that SP has an effect of inhibiting an increase of inflammatory cells caused by irradiation.
# IL-6 and TNFα = experiment: Radiation-irradiating model: inflammatory cytokines IL-6 and TNFα in serum (ELISA); type: in vivo, C57b1/6 mice; details: mice, 8 Gy, 5 nmole/kg SP i.v.
# Method: as §1
# (§2) IL-6 and TNFα that are well known as inflammatory cytokines were analyzed. Specific procedures were as follows: Serum samples stored in […] and reagents, controls, and standard proteins stored in a cold storage were taken out at a room temperature. 50 μl of diluted solution was put into each well; 50 μl of standard, control, and samples were added; well mixed by lightly tapping the plate; and then placed for 2 hours at a room temperature. […] After 30 minutes, 100 μl of stop codon was treated to stop the reaction; the optical density was measured at 450 nm; the amounts of cytokines were converted based on a protein conversion formula by a standard sample; and then the result was shown in FIG. 8. […]
# IL-10 = experiment: Radiation-irradiating model: anti-inflammatory cytokine IL-10 in blood (ELISA); type: in vivo, C57b1/6 mice; details: mice, 8 Gy, 5 nmole/kg SP i.v., FIG. 9
# Method: as §1
# as §2, with “out” for “out at a room temperature. 50 μl of diluted solution was put into each well; 50 μl of standard, control, and samples were added; well mixed by lightly tapping the plate; and then placed for 2 hours”
# IL-10 that is well known as an anti-inflammatory cytokine was analyzed with ELISA (R&D System) by using the same method as Example 2-2.
# [3] = Streptozotocin-induced Type I diabetes: blood glucose level and weight; type: in vivo, ICR mouse; details: for blood glucose level: FIG. 13
# Method: Specifically, 5 nmole/kg of SP dissolved in a physiological saline was injected to a tail vein of ICR mouse (8 weeks, sex; male, n=10, Average Weight: 30 g), and then STZ (Sigma, USA) was intraabdominally injected. Streptozotocin was daily injected intraabdominally for two days, and SP was intravenously injected at the same concentration for five days. Only streptozotocin was injected for the control; after one week, blood glucose level was checked to confirm induction of diabetes; then SP was intravenously injected for five days from seven days after STZ injection.
# Blood glucose level and weight were investigated. One drop of blood was taken from a tail vein of mouse by one time per 2-3 days, and a blood glucose level was measured by using a glucometer (Roche, Switzerland) and a weight was measured.
# pancreas beta cells = experiment: Streptozotocin-induced Type I diabetes: insulin IHC staining of pancreas; type: in vivo, ICR mouse
substance,measurement,setting,value
"Substance-P (RPKPQQFFGLM; not fully specified; ends and bridges not checked; UniProt P20366 58-68, looked up)",expression level of IL-6 in culture supernatant,[1],no a significant difference
same,expression level of IL-10 in culture supernatant,[1],increased
same,leukocyte (White Blood Cell) in blood,[2]; FIG. 7A,decreased at least two times
same,mononuclear cell in blood,[2]; FIG. 7B,decreased at least two times
same,neutrophilic leukocyte in blood,[2]; FIG. 7C,decreased at least two times
same,decrease of eosinocyte in blood,[2]; FIG. 7D,30-40%
same,inhibition of increase of IL-6 in serum,"IL-6 and TNFα; 4.5 hours after irradiation, vs group without SP, FIG. 8A",about 30%
same,TNF α in serum,"IL-6 and TNFα; one day after irradiation, FIG. 8",inhibited
same,amount of IL-10 in blood,IL-10; 4.5 hours after irradiation,increased by at least two times
same,amount of IL-10 in blood,IL-10; one day after irradiation,increased
same,blood glucose level,[3]; STZ/SP-injected group: 5 nmole/kg SP i.v. for five days at the same time as STZ,maintained in normal state
same,weight,"[3]; STZ/SP-injected group: 5 nmole/kg SP i.v. for five days at the same time as STZ, FIG. 14",maintained in normal state
same,blood glucose level,"[3]; STZ/after SP-injected group: SP i.v. for five days from seven days after STZ, after inducing diabetes",decreased in the short run
same,diabetes lesion,"pancreas beta cells; STZ-induced diabetes, SP treated after inducing diabetes",becomes weak
same,progress of Type I diabetes,"pancreas beta cells; STZ-induced diabetes, SP treated when diabetes was induced",inhibits
same,death of beta cells secreting insulin,"pancreas beta cells; STZ-induced diabetes, mice sacrificed at 11 weeks, FIG. 12",inhibited
same,insulin secretion (Insulin IHC staining of pancreas),"pancreas beta cells; group with injecting SP, mice sacrificed at 11 weeks, vs significantly low with only STZ, FIG. 12",high
